IC50 data for 34 compounds are collected here from patent US20080021056A1, “Fused, Tricyclic Sulfonamide Inhibitors of Gamma Secretase” (priority 2006, published 2008).

Molecules are shown by their SMILES.

The target of this experiment is T1, gamma-secretase (Homo sapiens, UniProt P49768).
T1 construct: partially purified extract of IMR-32 cell membranes as the gamma-secretase enzyme preparation; endogenous in cells; host or cells: IMR-32 cell membranes (partially purified extract)
Put plainly: Gamma-secretase APP enzyme assay. The format is biochemical. Conditions: cleavage of MBP-C125 Swe substrate at the Aβ40 site; partially purified extract of IMR-32 cell membranes; ELISA. From the text: The gamma-secretase APP enzyme assay was designed to measure the specific proteolytic cleavage of an APP substrate (MBP-C125 Swe fusion protein) at the Aβ40 site. The assay used a partially purified extract of IMR-32 cell membranes as the gamma-secretase enzyme preparation and a recombinant fusion protein containing the C-terminal 125 amino acids of the Swedish variant of the APP (MBP-C125swe) as the substrate. This assay involved two steps beginning with the enzymatic reaction generating a cleavage product that was captured with an immobilized antibody specific for the neo-epitope Aβ40 site. The captured cleavage product was then detected in a sandwich ELISA assay with a biotinylated reporter antibody that is specific to Aβ (17-28). Streptavidin-linked alkaline phosphatase was then added that would generate a fluorescent signal proportional to the amount of cleavage product. This assay was used to discover small molecule inhibitors of gamma-secretase.
Briefly, a 149 mg/ml solution of BIGCHAP detergent was made with water at 42° C. and then rotated for 30 minutes at the same temperatures This warmed solution of BigCHAPS (N,N-Bis(3-D-gluconamidopropyl)cholamide) detergent was used to dissolve Brain Extract Type-V (lipid containing a minimum of 40% phosphatidylethanolamine) from Signa (St. Louis, Mo.) to a concentration of 8 mg/ml. This solution containing BigCHAPS and lipid at 8 mg/ml is then diluted to 0.53 mg/ml lipid with a pre-warmed solution of Hepes and sodium chloride. This final solution containing Hepes buffer, sodium chloride, BigCHAPS detergent and lipid is used to create working solutions of both gamma-secretase (25 Units) and the MBP-C125 substrate (0.05 mg/ml).
Gamma-secretase was then added to a 96-well micro-titre plate and then incubated with various concentrations of inhibitor for 30 minutes at 37° C. MBPC125 substrate was then added to initiate the reaction that would run for two hours at 37° C. The reaction was quenched with the addition of SDS to a final concentration of 0.1% and then 100 μl of the reaction mixture was transferred to a capture ELISA plate and incubated overnight at 4° C. Detection of the cleavage product was performed using a standard sandwich ELISA assay and quantified using a six point standard curve.

As usually defined, the IC50 is the concentration that gives 50% inhibition. Regarding `O=S(=O)(c1ccc(C(F)(F)F)cc1)N1c2nccn2-c2[nH]ncc2C1C1CC1` (stereo not shown) [4-cyclopropyl-5-(4-(trifluoromethyl)phenylsulfonyl)-4,5-dihydro-1H-imidazo[1,2-a]pyrazolo[4,3-e]pyrimidine], the IC50 lay in the range of 501 to 1000 nM.
As to `O=S(=O)(c1ccc(C(F)(F)F)cc1)N1c2cccnc2-c2n[nH]cc2C1C1CC1` (stereo not shown) [4-cyclopropyl-5-(4-(trifluoromethyl)phenylsulfonyl)-4,5-dihydro-2H-pyrazolo[4,3-c][1,5]naphthyridine], the concentration for half-maximal inhibition (IC50) fell in the range of 0.1 to 100 nM.
For `O=S(=O)(c1ccc(C(F)(F)F)cc1)N1c2ncccc2-c2n[nH]cc2C1C1CC1` (stereo not shown) [4-cyclopropyl-5-(4-(trifluoromethyl)phenylsulfonyl)-4,5-dihydro-2H-pyrazolo[4,3-c][1,8]naphythyridine], the IC50 lay within 0.1 to 100 nM.
In the case of `O=S(=O)(c1ccc(C(F)(F)F)cc1)N1c2c[n+]([O-])ccc2-c2n[nH]cc2C1C1CC1` (stereo not shown) [4-cyclopropyl-5-(4-(trifluoromethylphenylsulfonyl)-4,5-dihydro-2H-pyrazolo[4,3-c][1,7]naphthyridine 7-oxide], the IC50 lay in the range of 0.1 to 100 nM.
Compound `O=S(=O)(c1ccc(F)cc1)N1c2ncccc2-c2n[nH]cc2C1C1CC1` (stereo not shown) [4-cyclopropyl-5-(4-fluorophenylsulfonyl)-4,5-dihydro-2H-pyrazolo[4,3-c][1,8]naphthyridine] showed a half-inhibitory concentration (IC50) of 0.1 to 100 nM.
The value for `O=S(=O)(c1ccc(F)cc1)N1c2ccccc2-c2n[nH]cc2C1C1CC1` (stereo not shown) [4-cyclopropyl-5-(4-fluorophenylsulfonyl)-4,5-dihydro-2H-pyrazolo[4,3-c]quinoline] was 0.1 to 100 nM; that for `O=S(=O)(c1ccc(C(F)(F)F)nc1)N1c2ccccc2-c2[nH]ncc2C1C1CC1` (stereo not shown) [4-cyclopropyl-5-(6-(trifluoromethyl)pyridin-3-ylsulfonyl)-4,5-dihydro-1H-pyrazolo[4,3-c]quinoline] was 0.1 to 100 nM.
Compound `O=S(=O)(c1ccc(OC(F)(F)F)cc1)N1c2cc(F)c(F)cc2-c2[nH]ncc2C1C1CC1` (stereo not shown) [4-cyclopropyl-7,8-difluoro-5-(4-(trifluoromethoxy)phenylsulfonyl)-4,5-dihydro-1H-pyrazolo[4,3-c]quinoline] came in with a 50% inhibitory concentration (IC50) of 0.1 to 100 nM.
As to `O=S(=O)(c1ccc(F)cc1)N1c2cc(F)c(F)cc2-c2n[nH]cc2C1C1CC1` (stereo not shown) [4-cyclopropyl-7,8-difluoro-5-(4-fluorophenylsulfonyl)-4,5-dihydro-2H-pyrazolo[4,3-c]quinoline], the half-maximal inhibitory concentration (IC50) lay within 0.1 to 100 nM.
The value for `O=S(=O)(c1ccc(C(F)(F)F)cn1)N1c2cc(F)c(F)cc2-c2[nH]ncc2C1C1CC1` (stereo not shown) [4-cyclopropyl-7,8-difluoro-5-(5-(trifluoromethyl)pyridin-2-ylsulfonyl)-4,5-dihydro-1H-pyrazolo[4,3-c]quinoline] was 0.1 to 100 nM; that for `O=S(=O)(c1ccc(C(F)(F)F)nc1)N1c2cc(F)c(F)cc2-c2[nH]ncc2C1C1CC1` (stereo not shown) [4-cyclopropyl-7,8-difluoro-5-(6-(trifluoromethyl)pyridin-3-ylsulfonyl)-4,5-dihydro-1H-pyrazolo[4,3-c]quinoline] was 0.1 to 100 nM.
To `O=S(=O)(c1cccs1)N1c2cc(F)c(F)cc2-c2n[nH]cc2C1C1CC1` (stereo not shown) [4-cyclopropyl-7,8-difluoro-5-(thiophen-2-ylsulfonyl)-4,5-dihydro-2H-pyrazolo[4,3-c]quinoline] belongs 0.1 to 100 nM.
To `Cc1nc2c(s1)N(S(=O)(=O)c1ccc(C(F)(F)F)cc1)C(C1CC1)c1c[nH]nc1-2` (stereo not shown) [4-cyclopropyl-7-methyl-5-(4-(trifluoromethyl)phenylsulfonyl)-4,5-dihydro-1H-pyrazolo[3,4-d]thiazolo[5,4-b]pyridine] belongs 0.1 to 100 nM.
`CCC1c2cn[nH]c2-c2cc(F)c(F)cc2N1S(=O)(=O)c1ccc(C(F)(F)F)cn1` (stereo not shown) [4-ethyl-7,8-difluoro-5-(5-(trifluoromethyl)pyridin-2-ylsulfonyl)-4,5-dihydro-1H-pyrazolo[4,3-c]quinoline]: the half-maximal inhibitory concentration (IC50) was in the range of 0.1 to 100 nM.
In turn, `CC1c2c[nH]nc2-c2ccccc2N1S(=O)(=O)c1ccccn1` (stereo not shown) [4-methyl-5-(pyridin-2-ylsulfonyl)-4,5-dihydro-2H-pyrazolo[4,3-c]quinoline] yielded an IC50 of 101 to 500 nM.
To `CC1c2cn[nH]c2-c2ccccc2N1S(=O)(=O)c1cccnc1` (stereo not shown) [4-methyl-5-(pyridin-3-ylsulfonyl)-4,5-dihydro-1H-pyrazolo[4,3-c]quinoline] belongs 101 to 500 nM; to `O=S(=O)(c1ccc(Cl)cc1)N1Cc2cn[nH]c2-n2ccnc21` [5-(4-chlorophenylsulfonyl)-4,5-dihydro-1H-imidazo[1,2-a]pyrazolo[4,3-e]pyrimidine], 101 to 500 nM; to `O=S(=O)(c1ccc(Cl)cc1)N1c2ccccc2-c2n[nH]cc2C1C(F)(F)F` (stereo not shown) [5-(4-chlorophenylsulfonyl)-4-(trifluoromethyl)-4,5-dihydro-2H-pyrazolo[4,3-c]quinoline], 0.1 to 100 nM.
With `O=S(=O)(c1ccc(Cl)cc1)N1c2nccn2-c2[nH]ncc2C1C1CC1` (stereo not shown) [5-(4-chlorophenylsulfonyl)-4-cyclopropyl-4,5-dihydro-1H-imidazo[1,2-a]pyrazolo[4,3-e]pyrimidine], the concentration for half-maximal inhibition (IC50) was in the range of 101 to 500 nM.
The value for `O=S(=O)(c1ccc(Cl)cc1)N1c2ccccc2-c2n[nH]cc2C1C1CC1` (stereo not shown) [5-(4-chlorophenylsulfonyl)-4-cyclopropyl-4,5-dihydro-2H-pyrazolo[4,3-c]quinoline] was 0.1 to 100 nM; that for `CCC1c2cn[nH]c2-c2ccccc2N1S(=O)(=O)c1ccc(Cl)cc1` (stereo not shown) [5-(4-chlorophenylsulfonyl)-4-ethyl-4,5-dihydro-1H-pyrazolo[4,3-c]quinoline] was 0.1 to 100 nM.
On to `CC(C)C1c2c[nH]nc2-c2ccccc2N1S(=O)(=O)c1ccc(Cl)cc1` (stereo not shown) [5-(4-chlorophenylsulfonyl)-4-isopropyl-4,5-dihydro-2H-pyrazolo[4,3-c]quinoline], for which the IC50 was 0.1 to 100 nM.
To `CC1c2cn[nH]c2-c2ccc(O)cc2N1S(=O)(=O)c1ccc(Cl)cc1` (stereo not shown) [5-(4-chlorophenylsulfonyl)-4-methyl-4,5-dihydro-1H-pyrazolo[4,3-c]quinolin-7-ol] belongs 0.1 to 100 nM; to `CC1c2c[nH]nc2-c2ccc(OC(=O)N(C)C)cc2N1S(=O)(=O)c1ccc(Cl)cc1` (stereo not shown) [5-(4-chlorophenylsulfonyl)-4-methyl-4,5-dihydro-1H-pyrazolo[4,3-c]quinolin-7-yl dimethylcarbamate], 0.1 to 100 nM; to `CC1c2cn[nH]c2-c2cc(O)c(O)cc2N1S(=O)(=O)c1ccc(Cl)cc1` (stereo not shown) [5-(4-chlorophenylsulfonyl)-4-methyl-4,5-dihydro-1H-pyrazolo[4,3-c]quinoline-7,8-diol], 0.1 to 100 nM.
Take `CC1c2c[nH]nc2-c2cc3c(cc2N1S(=O)(=O)c1ccc(Cl)cc1)OCO3` (stereo not shown) [5-(4-chlorophenylsulfonyl)-4-methyl-4,5-dihydro-2H-[1,3]dioxolo[4,5-g]pyrazolo[4,3-c]quinoline]: the IC50 was in the range of 0.1 to 100 nM.
To `CC1c2c[nH]nc2-c2ccncc2N1S(=O)(=O)c1ccc(Cl)cc1` (stereo not shown) [5-(4-chlorophenylsulfonyl)-4-methyl-4,5-dihydro-2H-pyrazolo[4,3-c][1,7]naphthyridine] belongs 0.1 to 100 nM; to `CC1c2c[nH]nc2-c2cccnc2N1S(=O)(=O)c1ccc(Cl)cc1` (stereo not shown) [5-(4-chlorophenylsulfonyl)-4-methyl-4,5-dihydro-2H-pyrazolo[4,3-c][1,8]naphthyridine], 0.1 to 100 nM; to `CC1c2c[nH]nc2-c2cc(O)ccc2N1S(=O)(=O)c1ccc(Cl)cc1` (stereo not shown) [5-(4-chlorophenylsulfonyl)-4-methyl-4,5-dihydro-2H-pyrazolo[4,3-c]quinolin-8-ol], 0.1 to 100 nM.
The value for `CC1c2c[nH]nc2-c2ccc(F)cc2N1S(=O)(=O)c1ccc(Cl)cc1` (stereo not shown) [5-(4-chlorophenylsulfonyl)-7-fluoro-4-methyl-4,5-dihydro-2H-pyrazolo[4,3-c]quinoline] was 0.1 to 100 nM; that for `O=c1c2cn[nH]c2c2cc(F)ccc2n1S(=O)(=O)c1ccc(Cl)cc1` [5-(4-chlorophenylsulfonyl)-8-fluoro-1H-pyrazolo[4,3-c]quinolin-4(5H)-one] was 1000 to 10000 nM.
`CC1c2c[nH]nc2-c2c(F)cccc2N1S(=O)(=O)c1ccc(Cl)cc1` (stereo not shown) [5-(4-chlorophenylsulfonyl)-9-fluoro-4-methyl-4,5-dihydro-2H-pyrazolo[4,3-c]quinoline] displayed an IC50 of 0.1 to 100 nM.
To `O=S(=O)(c1ccc(F)cc1)N1c2ncccc2-c2n[nH]cc2C1C(F)(F)F` (stereo not shown) [5-(4-fluorophenylsulfonyl)-4-(trifluoromethyl)-4,5-dihydro-2H-pyrazolo[4,3-c][1,8]naphthyridine] belongs 0.1 to 100 nM.
On to `O=S(=O)(c1ccc(Cl)cn1)N1c2cc(F)c(F)cc2-c2[nH]ncc2C1C1CC1` (stereo not shown) [5-(5-chloropyridin-2-ylsulfonyl)-4-cyclopropyl-7,8-difluoro-4,5-dihydro-1H-pyrazolo[4,3-c]quinoline], for which the IC50 fell in the range of 0.1 to 100 nM.
